Reference: patent US5840697A, “Peptide inhibitors of calmodulin” (Torrey Pines Institute for Molecular Studies, priority 1996, dated 1998)
Where two headings read alike, the source gives them in different places. Square brackets hold non-standard residues; d marks the D form. Peptide text beside a SMILES is read from it.

How the values were obtained:
[1] = tested on: normal rat kidney (NRK) cells; test: DNA synthesis ([3H]-thymidine incorporation) in cell culture; format: cell-based; details: added at 5 hr
Description: Following the methods described in Lopez-Girona et al., Cell Calcium, 18:30-40 (1995), which is incorporated herein by reference, the effect of calmodulin inhibitory peptides on DNA synthesis was investigated. Specifically, peptides were added to culture media and assessed for their ability to inhibit the progression of normal rat kidney (NRK) cells into the S phase of the cell cycle; the DNA synthesis phase into the cell growth cycle. Such inhibition has been shown for existing anti-calmodulin drugs such as W13.
NRK cells were made quiescent by growing them to confluence in Dulbecco's minimum essential medium supplemented with 5% fetal calf serum (FCS), and then kept for 3-4 days in the same medium but with only 0.5% FCS. To allow them to re-enter the cell cycle, quiescent cells were trypsinized and subcultured at a lower density in fresh medium supplemented with 5% FCS.
DNA synthesis was analyzed by the measurement of [^3 H]-thymidine into whole cell DNA. NRK cells (10^5 per 35 mm plate) were pulse labeled for 1 hr with [methyl-^3 H]-thymidine (5 Ci/mmol) at 4 μCi/ml in Dulbecco's minimum essential medium supplemented with 5% FCS. Precipitation and solubilization of DNA was carried out as described in Cripps-Wolfman et al., J. Biol. Chem., 264:19478-19486 (1989), which is incorporated herein by reference.
The NRK cells stimulated to proliferate by addition of 5% FCS enter synchronously into the cell cycle and start the S phase after 12 hr reaching a maximum between 18 to 20 hr. The peptides were added at 5 hr (time at which the cells have already reenter the G1 phase). […] Similar results were found between the (D)-amino acid peptides and their (L)-counterpart.

NRK cells = test: long term stability: number of NRK cells at 48 hr after activation; format: cell-based, rat; details: added at 5 hr, counted 48 hr after activation
Description: The similar activity found for the (L)-amino acid peptides and (D)-amino acid peptides indicate that the inhibition of calmodulin occurs rapidly following the addition of the inhibitory peptides. The peptides' long term stability was then studied by adding Ac-(D)Leu-(D)Trp-(D)Arg-(D)Ile-(D)Leu-(D)Trp-NH2, Ac-Leu-Trp-Arg-Ile-Leu-Trp-NH2 (SEQ ID No. 48), W13 and W12 at 5 hr following the reentry of the NRK cells into the cell cycle and measuring the number of cells at 48 hr after activation.

calmodulin = calmodulin (Homo sapiens, UniProt P0DP23); test: calcium-dependent phosphodiesterase assay (calmodulin activity); format: biochemical; details: for SPECIFICITY: comparison of IC50 for phosphodiesterase with IC50 for calmodulin
Description: In the calcium dependent phosphodiesterase assay, calmodulin can be assayed by its ability to stimulate phosphodiesterase activity as determined by a two-step assay procedure illustrated by reactions (1) and (2) below. [drawing 1]
During the first step of the assay cyclic adenosine 3'5'-monophosphate (cAMP) is incubated with calcium-activated phosphodiesterase (Cal-PDE), which hydrolyses the 3'bond producing adenosine 5'-monophosphate (5'-AMP). During the second step, 5'-AMP is quantitatively converted into adenosine and inorganic phosphate (Pi) through the action of a 5-nucleotidase. The reaction is followed by the measurement of the Pi formed by reading the absorbance at 660 nm after reacting with ammonium molybdate. The amount of Pi formed is directly related to the phosphodiesterase activity which depends on the level of activation by calmodulin.
To sample assay tubes were added the following components: assay buffer, 25 ul; CaCl2, 5 ul; 5'-nucleotidase, 7.5 ul (stock solution is 10 units/ml); calmodulin 5 units; calmodulin inhibitor peptides to obtain the desired final concentration of 50 μM. The volume was then made up to 200 ul with water. Control blanks were prepared replacing the peptides with water. The added components were thoroughly mixed and the tubes incubated at 30° C. for 10 min. […] The samples were centrifuged to remove the protein precipitate and the 50 ul of the supernatant was withdrawn for phosphate measurement. […] The absorbance of the solution were read at 660 nm using water as a blank, identified as control "Calmo."
The two controls used in the assay, one without and one with calmodulin, as indicated in FIG. 1 and Table I were as follows,: (1) PDE:
These three controls were used in the calcium-dependent phosphodiesterase assay for reproducibility of the assay.
In addition to the calcium-dependent phosphodiesterase assay data, IC50 values were determined for many of the peptides. The assay carried out for the determination in the IC50 values differed from the above screening assay by the concentration of the peptides being tested.
(3) TFP: trifluoperazine; and (4) Calmidasolium: (1-[bis-(4-chlorophenyl)methyl]-3[-2-(2,4-dichlorophenyl)-2[(2,4-dichlorophenyl)methoxy]-ethyl]-1H-imidazolium chloride. The IC50 values were calculated using sigmoidal curve software (Graphpad, ISI; San Diego, Calif.) using the % inhibition at different mixture concentrations (see protocol for determination of % inhibition).
The (L)-amino acid counterpart for five (5) of the all (D)-amino acid peptides identified from the PS-SCL were synthesized in order to study the stereoselectivity of the inhibition.

phosphodiesterase = test: calcium-dependent phosphodiesterase assay in the absence of calmodulin; format: biochemical; details: Table III
Description: To sample assay tubes were added the following components: assay buffer, 25 ul; CaCl2, 5 ul; 5'-nucleotidase, 7.5 ul (stock solution is 10 units/ml); calmodulin 5 units; calmodulin inhibitor peptides to obtain the desired final concentration of 50 μM. The volume was then made up to 200 ul with water. Control blanks were prepared replacing the peptides with water. The added components were thoroughly mixed and the tubes incubated at 30° C. for 10 min. Then, 25 ul of cAMP at 10.8 mM was added and incubated for 90 min at 30° C. The reaction was stopped by the addition of 50 ul of 55% trichloroacetic acid (TCA). The samples were centrifuged to remove the protein precipitate and the 50 ul of the supernatant was withdrawn for phosphate measurement. To the supernatant aliquot, 50 ul ammonium molybdate (0.55% in 1.1 N sulfuric acid) was added, followed by the addition of 5 ul of reducing agent (24 g sodium bisulfite, 2.4 g sodium sulfite, 0.5 g of 1-amino-2-naphthol-4-sulfonic acid in 200 ml of water), and the contents were mixed by vortexing. The absorbance of the solution were read at 660 nm using water as a blank, identified as control "Calmo."
As described above, one of the undesirable biological effects of existing calmodulin inhibitors is their non-specific binding to other proteins and the like. Therefore, the specificity of the instant inhibitory peptides for calmodulin was examined. The specificity was determined using the calcium-dependent phosphodiesterase assay described in Example I. The assay was carried out for the determination of IC50 values in the presence of calmodulin (IC50 value for calmodulin) and in the absence of calmodulin (IC50 for phosphodiesterase), the latter of which provides the effect of the inhibitory peptides on the phosphodiesterase.

rat liver cells = test: in vivo rat model: DNA synthesis of rat liver cells after partial hepatectomy; details: intravenous injection 5 hours after partial hepatectomy, measured 24 hours post hepatectomy
Description: The effect that calmodulin inhibitors have on DNA synthesis were also studied in vivo in a rat model. Rat liver cells are a useful in vivo system for studying synchronized cells and the cell cycle. By partial hepatectomy, the hepatocyte quiescent cells present in normal adult rat liver can be stimulated to enter the replicative cell cycle and the effect of inhibitors on the cycle analyzed. This example provides the effect of the subject calmodulin inhibitory peptides on the DNA synthesis of rat liver cells in partial hepatectomy stage following intra venal injection of the peptides.
Male Sprague-Dawley rats ([…]; 2 rats per peptide or control) were fasted overnight. Partial hepatectomies were carried out under Ketolar anesthesia (Parke-Davis; Ann Arbor, Mich.), following the procedure described by Higgins and Anderson in Arch. Pathol., 12:186-202 (1931), which is incorporated herein by reference. […] DNA synthesis was assessed by measuring the radioactivity incorporated into DNA following an intraperitoneal injection (0.5 mCi/g body weight) of [^3 H] thymidine 1 hr prior to killing the rat and at 23 hours post hepatectomy. […] The liver tissue was homogenized in 10% trifluoroacetic acid at 4° C. and the DNA extracted and its radioactivity measured following the procedure described by Burton, Biochem. J., 62:315-320 (1956), which is incorporated herein by reference. […]

[2] = Table I, assayed at 75, 50 and 12.5 μM, average of repeated assays, read-out: Average IC50
[3] = Table III, in the presence of calmodulin, read-out: IC50 (μM) for calmodulin

SMILES | number of cells relative to control cells (NRK cells) | IC50 (calmodulin; [2]) [µM] | IC50 (calmodulin; [3]) [µM] | SPECIFICITY (calmodulin) | IC50 (phosphodiesterase) [µM] | further results
NCCCCNS(=O)(=O)c1ccc2ccccc2c1 [Peptide W12, reference compound] | the same number of cells | – | – | – | – | % DNA SYNTHESIS ([1]; 30 μM): 100%
CC[C@@H](C)[C@@H](NC(=O)[C@@H](Cc1c[nH]c2ccccc12)NC(=O)[C@@H](CC(C)C)NC(C)=O)C(=O)N[C@@H](C(=O)N[C@H](CC(C)C)C(=O)N[C@H](Cc1c[nH]c2ccccc12)C(N)=O)[C@H](C)CC [Ac-(D)Leu-(D)Trp-(D)Ile-(D)Ile-(D)Leu-(D)Trp-NH2] (Ac-[dL][dW][dI][dI][dL][dW]-NH2) | – | 36 | 29 | – | – | IC50 (μM) for phosphodiesterase (phosphodiesterase): activation
NCCCCNS(=O)(=O)c1ccc2c(Cl)cccc2c1 [Peptide W13, N-(4-aminobutyl)-5-chloro-2-naphtalenesulfonamide, reference compound] | significantly lower number of cells | 93 | – | – | – | % DNA SYNTHESIS ([1]; 30 μM): 60%
CC[C@@H](C)[C@@H](NC(=O)[C@@H](CCC(N)=O)NC(=O)[C@@H](CC(C)C)NC(C)=O)C(=O)N[C@H](Cc1c[nH]cn1)C(=O)N[C@H](CC(C)C)C(=O)N[C@H](CCCNC(=N)N)C(N)=O [Ac-(D)Leu-(D)Gln-(D)Ile-(D)His-(D)Leu-(D)Arg-NH2] (Ac-[dL][dQ][dI][dH][dL][dR]-NH2) | – | 70 | 43 | 2.4 | 104 | % DNA SYNTHESIS ([1]; 7.5 μM): 100%; % DNA SYNTHESIS ([1]; 15 μM): 84%; % DNA SYNTHESIS (rat liver cells): 100%
CC(=O)N[C@H](CC(C)C)C(=O)N[C@H](Cc1c[nH]c2ccccc12)C(=O)N[C@H](CCCNC(=N)N)C(=O)N[C@H](Cc1c[nH]cn1)C(=O)N[C@H](Cc1c[nH]cn1)C(=O)N[C@H](Cc1c[nH]c2ccccc12)C(N)=O [Ac-(D)Leu-(D)Trp-(D)Arg-(D)His-(D)His-(D)Trp-NH2] (Ac-[dL][dW][dR][dH][dH][dW]-NH2) | – | 1.1 | – | 100 | 112 | –
CC[C@@H](C)[C@@H](NC(=O)[C@@H](Cc1c[nH]c2ccccc12)NC(=O)[C@@H](CC(C)C)NC(C)=O)C(=O)N[C@H](Cc1c[nH]cn1)C(=O)N[C@H](CC(C)C)C(=O)N[C@H](Cc1c[nH]c2ccccc12)C(N)=O [Ac-(D)Leu-(D)Trp-(D)Ile-(D)His-(D)Leu-(D)Trp-NH2] (Ac-[dL][dW][dI][dH][dL][dW]-NH2) | – | 3.6 | – | 12 | 42 | –
CC[C@@H](C)[C@@H](NC(=O)[C@@H](CCCNC(=N)N)NC(=O)[C@@H](Cc1c[nH]c2ccccc12)NC(=O)[C@@H](CC(C)C)NC(C)=O)C(=O)N[C@H](CC(C)C)C(=O)N[C@H](CCCNC(=N)N)C(N)=O [Ac-(D)Leu-(D)Trp-(D)Arg-(D)Ile-(D)Leu-(D)Arg-NH2] (Ac-[dL][dW][dR][dI][dL][dR]-NH2) | – | 3.9 | 4.8 | > 42 | > 200 | –
CC[C@H](C)[C@H](NC(=O)[C@H](CCCNC(=N)N)NC(=O)[C@H](Cc1c[nH]c2ccccc12)NC(=O)[C@H](CC(C)C)NC(C)=O)C(=O)N[C@@H](CC(C)C)C(=O)N[C@@H](Cc1c[nH]c2ccccc12)C(N)=O [Ac-Leu-Trp-Arg-Ile-Leu-Trp-NH2] (Ac-LWRILW-NH2) | the same number of cells | – | – | > 227 | > 200 | calmodulin inhibitory activity, in words (calmodulin; (L)-amino acid peptides of Table II): especially high activity; IC50 (calmodulin; Table II, (L)-amino acid peptides, concentrations 0.2 to 50.0 μM, read-out: IC50): 0.88 µM
